The target of this experiment is T1, full length active recombinant SYK enzyme (Homo sapiens, UniProt P43405).
T1 construct: full length active recombinant SYK enzyme (Millipore, Calif.); purchased Millipore
The experiment in a line: Inhibition of Syk tyrosine phosphorylation activity (LANCE TR-FRET kinase assay). Format: biochemical. The settings on record: activity in the Syk assays, class symbols. Put shortly: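 IC50 was derived by non-linear regression of TR-FRET signal (Eu-W1024-PY100 donor, streptavidin-APC acceptor) read 1 h after EDTA quench. The kinase step ran 1 h at room temperature with 1 nM full-length SYK, 550 nM biotinylated DEEDYESP substrate and 100 μM ATP in Tris pH 7.5/MgCl2/DTT at 3% final DMSO.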

Regarding `NC(=O)c1ncc(N[C@@H]2CCCC[C@@H]2N)nc1NC1CCOCC1` [Example 35, 5-((1R,2S)-2-aminocyclohexylamino)-3-(tetrahydro-2H-pyran-4-ylamino)pyrazine-2-carboxamide], the IC50 was above 1000 nM.

With `NC(=O)c1ncc(N[C@@H]2CCCC[C@@H]2N)nc1Nc1cc(CN2CCOCC2)ns1` [Example 255, 5-((1R,2S)-2-aminocyclohexylamino)-3-(3-(morpholinomethyl)isothiazol-5-ylamino)pyrazine-2-carboxamide], the IC50 lay in the range of 10 to 100 nM. For `CC[C@@H](Nc1cnc(C(N)=O)c(Nc2cccc3c2ccn3C)n1)C(N)=O` [Example 394, (R)-5-(1-amino-1-oxobutan-2-ylamino)-3-(1-methyl-1H-indol-4-ylamino)pyrazine-2-carboxamide], the IC50 lay in the range of 1 to 10 nM. `CCc1ccc(Nc2nc(N[C@@H]3CCCC(F)(F)[C@@H]3N)cnc2C(N)=O)cn1` [Example 343, 5-((1R,2R)-2-amino-3,3-difluorocyclohexylamino)-3-(6-ethylpyridin-3-ylamino)pyrazine-2-carboxamide]: the IC50 is 100 to 1000 nM. Regarding `NC(=O)c1ncc(N[C@@H]2CCCC[C@@H]2N)nc1NC1CCCC1` [Example 36, 5-((1R,2S)-2-aminocyclohexylamino)-3-(cyclopentylamino)pyrazine-2-carboxamide], the IC50 was above 1000 nM. Then `NC(=O)c1ncc(N[C@@H]2CCNC2)nc1Nc1csc2ncccc12` [Example 106, (R)-5-(pyrrolidin-3-ylamino)-3-(thieno[2,3-b]pyridin-3-ylamino)pyrazine-2-carboxamide], with 1 to 10 nM.

As for `Cc1cc(Nc2nc(N[C@H](C)C(N)=O)cnc2C(N)=O)sn1` [Example 215, (R)-5-(1-amino-1-oxopropan-2-ylamino)-3-(3-methylisothiazol-5-ylamino)pyrazine-2-carboxamide], the IC50 is 10 to 100 nM.

As for `CC(C)C[C@@H](Nc1cnc(C(N)=O)c(Nc2cnc3ccccc3c2)n1)C(N)=O` [Example 1, (R)-5-(1-amino-4-methyl-1-oxopentan-2-ylamino)-3-(quinolin-3-ylamino)pyrazine-2-carboxamide], the IC50 is 1 to 10 nM. Then `CC(C)C[C@@H](Nc1cnc(C(N)=O)c(Nc2ccc(N3CCC3)nc2)n1)C(N)=O` [Example 334, (R)-5-(1-amino-4-methyl-1-oxopentan-2-ylamino)-3-(6-(azetidin-1-yl)pyridin-3-ylamino)pyrazine-2-carboxamide], with 10 to 100 nM; and `N#Cc1ccc(Nc2nc(N[C@@H]3CCCC[C@@H]3N)cnc2C(N)=O)cn1` [Example 338, 5-((1R,2S)-2-aminocyclohexylamino)-3-(6-cyanopyridin-3-ylamino)pyrazine-2-carboxamide], with 10 to 100 nM. As to `NC(=O)c1ncc(N[C@@H]2CCCC[C@@H]2N)nc1Nc1ccc2cccnc2c1` [Example 435, 5-(((1R,2S)-2-aminocyclohexyl)amino)-3-(quinolin-7-ylamino)pyrazine-2-carboxamide], the IC50 fell in the range of 1 to 10 nM. For the compound `CS(=O)(=O)c1cccc(Nc2nc(N[C@@H]3CCCC[C@@H]3N)cnc2C(N)=O)c1` [Example 154, 5-((1R,2S)-2-aminocyclohexylamino)-3-(3-(methylsulfonyl)phenylamino)pyrazine-2-carboxamide], the IC50 was 10 to 100 nM. As to `CN(C)C(=O)c1cc(Nc2nc(N[C@@H]3CCCC[C@@H]3N)cnc2C(N)=O)ccc1F` [Example 284, 5-((1R,2S)-2-aminocyclohexylamino)-3-(3-(dimethylcarbamoyl)-4-fluorophenylamino)pyrazine-2-carboxamide], the IC50 lay in the range of 100 to 1000 nM. Turning to `CC(C)(C)[C@@H](Nc1cnc(C(N)=O)c(Nc2ccc3cccnc3c2)n1)C(N)=O` [Example 235, (R)-5-(1-amino-3,3-dimethyl-1-oxobutan-2-ylamino)-3-(quinolin-7-ylamino)pyrazine-2-carboxamide], the IC50 lay in the range of 10 to 100 nM.

With `Cc1ccc(Nc2nc(N[C@H](CC(F)F)C(N)=O)cnc2C(N)=O)cc1` [Example 123, (R)-5-((1-amino-4,4-difluoro-1-oxobutan-2-yl)amino)-3-(p-tolylamino)pyrazine-2-carboxamide], the IC50 was 1 to 10 nM. Then `Cc1nsc(Nc2nc(N[C@@H]3CCCC[C@@H]3N)cnc2C(N)=O)c1-c1cncnc1` [Example 125, 5-(((1R,2S)-2-aminocyclohexyl)amino)-3-((3-methyl-4-(pyrimidin-5-yl)isothiazol-5-yl)amino)pyrazine-2-carboxamide], with above 1000 nM; and `NC(=O)c1ncc(N[C@@H]2CCCC[C@@H]2N)nc1Nc1ccc(-n2cccn2)cc1` [Example 276, 3-(4-(1H-pyrazol-1-yl)phenylamino)-5-((1R,2S)-2-aminocyclohexylamino)pyrazine-2-carboxamide], with 1 to 10 nM; and `CC[C@@H](Nc1cnc(C(N)=O)c(Nc2cccc(-c3ncco3)c2)n1)C(N)=O` [Example 450, (R)-5-((1-amino-1-oxobutan-2-yl)amino)-3-((3-(oxazol-2-yl)phenyl)amino)pyrazine-2-carboxamide], with 10 to 100 nM. Consider `Cc1cc(Nc2nc(NC3(C(N)=O)CC3)cnc2C(N)=O)sn1` [Example 220, 5-(1-carbamoylcyclopropylamino)-3-(3-methylisothiazol-5-ylamino)pyrazine-2-carboxamide], for which the IC50 is 1 to 10 nM.

For `CN(CC(F)(F)F)C(=O)c1ccc(Nc2nc(N[C@@H]3CCCC[C@@H]3N)cnc2C(N)=O)cc1` [Example 298, 5-((1R,2S)-2-aminocyclohexylamino)-3-(4-(methyl(2,2,2-trifluoroethyl)carbamoyl)phenylamino)pyrazine-2-carboxamide], the IC50 lay within 10 to 100 nM.

Regarding `CC[C@@H](Nc1cnc(C(N)=O)c(Nc2ccnc(N(C)C)c2)n1)C(N)=O` [Example 353, (R)-5-(1-amino-1-oxobutan-2-ylamino)-3-(2-(dimethylamino)pyridin-4-ylamino)pyrazine-2-carboxamide], the IC50 was 1 to 10 nM.

On to `CC[C@@H](Nc1cnc(C(N)=O)c(Nc2ccc(N(C)C)nc2)n1)C(N)=O` [Example 310, (R)-5-(1-amino-1-oxobutan-2-ylamino)-3-(6-(dimethylamino)pyridin-3-ylamino)pyrazine-2-carboxamide], for which the IC50 lay in the range of 10 to 100 nM. Consider `CC[C@@H](Nc1cnc(C(N)=O)c(Nc2snc3ccsc23)n1)C(N)=O` [Example 268, (R)-5-(1-amino-1-oxobutan-2-ylamino)-3-(thieno[3,2-c]isothiazol-3-ylamino)pyrazine-2-carboxamide], for which the IC50 was 1 to 10 nM. Then `NC(=O)c1ncc(N[C@@H]2CCCC[C@@H]2N)nc1Nc1cnc2c(F)cccc2c1` [Example 202, 5-((1R,2S)-2-aminocyclohexylamino)-3-(8-fluoroquinolin-3-ylamino)pyrazine-2-carboxamide], with 1 to 10 nM. Take `COc1cncc(Nc2nc(N[C@H](CC(C)C)C(N)=O)cnc2C(N)=O)c1` [Example 323, (R)-5-(1-amino-4-methyl-1-oxopentan-2-ylamino)-3-(5-methoxypyridin-3-ylamino)pyrazine-2-carboxamide]: the IC50 is 1 to 10 nM.

On to `Cc1ccc(Nc2nc(N[C@H](CC(F)F)C(N)=O)cnc2C(N)=O)cc1C` [Example 122, (R)-5-((1-amino-4,4-difluoro-1-oxobutan-2-yl)amino)-3-((3,4-dimethylphenyl)amino)pyrazine-2-carboxamide], for which the IC50 was below 1 nM.

The values above are taken from patent US9359308B2, “Pyrazine kinase inhibitors” (Portola Pharmaceuticals, Inc., priority 2011, dated 2016).
